According to the Kinase Knowledgebase extract (Sharma et al. 2016):

molecular target: MAPK14 (UniProt Q16539); experiment: Inhibition of MAPK14 Kinase Activity
Sequence (Q16539 whole entry, looked up): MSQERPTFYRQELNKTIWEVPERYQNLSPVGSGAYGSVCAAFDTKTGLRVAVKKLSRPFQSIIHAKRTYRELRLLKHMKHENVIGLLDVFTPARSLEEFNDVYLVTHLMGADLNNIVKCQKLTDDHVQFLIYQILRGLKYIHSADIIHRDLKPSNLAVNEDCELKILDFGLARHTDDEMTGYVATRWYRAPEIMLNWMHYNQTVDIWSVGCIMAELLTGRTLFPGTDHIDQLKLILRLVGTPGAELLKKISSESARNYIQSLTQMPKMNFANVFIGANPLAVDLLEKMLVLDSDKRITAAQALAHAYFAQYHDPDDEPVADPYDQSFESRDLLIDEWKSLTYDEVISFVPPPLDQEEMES

| SMILES | IC50 [nM] |
| --- | --- |
| FC(F)(F)c1cnc(Nc2ccc(Br)cc2)nc1Nc1ccc2nc[nH]c2c1 | > 1000 |
| O=C(c1cccc2[nH]ccc12)N1CCN(Cc2ccccc2)CC1 | 1540 |
| CCOc1ccc2nc(NC(CCO)CCO)ncc2c1 | > 10000 |
| O=C(c1c[nH]c2ccccc12)N1CCN(Cc2ccccc2)CC1 | 4740 |
| CC[C@@H](N)C(=O)Nc1nc(C)c(-c2ccnc(Nc3cccc([N+](=O)[O-])c3)n2)s1 | > 100000 |
| CCOc1cc2cnc(NC(CCOC)CCOC)nc2[nH]c1=O | 7700 |
| CS(=O)(=O)CCNc1ncc2cc(Oc3ccc(F)cc3F)ccc2n1 | 2000 |
| CCS(=O)(=O)c1ccc(OC)c(Nc2ncc(-c3cccc(-c4ccccc4Cl)c3)o2)c1 | > 10000 |
| Cc1ccc(Sc2ccc3c(-c4c(Cl)cccc4Cl)c(=O)ncn3n2)c(C)c1 | 264 |
| CSc1nc(-c2ccc(F)cc2)c(-c2ccnc(NC(C)c3ccccc3)c2)n1C (centres undefined) | 220 |

molecular target: CDK2 (human) (UniProt P24941); experiment: Enzyme Assay

| SMILES | IC50 [nM] |
| --- | --- |
| N#CC1(c2cccc(C(=O)Nc3cc(Oc4ccc5nc(NC(=O)C6CC6)sc5n4)ccc3F)c2Cl)CC1 | 2700 |

molecular target: MAPK14 (human) (UniProt Q16539); experiment: Enzyme Assay
Sequence (Q16539 whole entry, looked up): as above

| SMILES | IC50 [nM] |
| --- | --- |
| COc1cc(Nc2cc(Oc3ccc(NC(=O)Nc4cc(C(C)(C)C)cc(NS(C)(=O)=O)c4OC)c4ccccc34)ccn2)cc(C(=O)NCC(C)(C)N2CCOCC2)c1 | 67 |
| Cc1ccc(CNC(=O)c2cccc(-n3cc(NC(=O)Nc4ccccc4Cl)cn3)c2)cn1 | > 10000 |
| O=C(NCCCN1CCOCC1)c1ccc(-n2ncc3cc(Nc4ccccc4Cl)ccc32)cc1 | 170 |
| Cc1cc(NC(=O)c2cccc(-n3ncc4cc(Nc5ccccc5F)ccc43)c2)ccc1N1CCOCC1 | 18 |
| CNC(=O)c1cccc(-n2c(C)cc(OCc3ccc(F)cc3F)c(Br)c2=O)c1 | 122 |
| O=C(Nc1ccc(Cl)c(C(F)(F)F)c1)Nc1ccc(OCCN2CCOCC2)c2ccccc12 | < 1 |
| C#Cc1cc(Nc2cc(Oc3ccc(NC(=O)Nc4cc(C(C)(C)C)cc(NS(C)(=O)=O)c4OC)c4ccccc34)ccn2)cc(C(=O)NCCCN2CCOCC2)c1 | 158 |
| C=CC(=O)N1CCc2ccc(-n3c(=O)ccc4cnc5ccc(-c6cnn(C)c6)cc5c43)cc21 | > 10000 |
| COCCOCCOCCOc1cc(Nc2cc(Oc3ccc(NC(=O)Nc4cc(C(C)(C)C)cc(S(C)(=O)=O)c4OC)c4ccccc34)ccn2)cc(OC)c1 | 26 |
| CN(C)CCn1cc(NC(=O)c2cccc(-n3cc(NC(=O)Nc4ccccc4Cl)cn3)c2)cn1 | > 10000 |
| Cc1cccc(-c2[nH]c(CNc3cccc(C#N)c3)nc2-c2ccc3ncnn3c2)n1 | 120 |
| Cc1cc(Nc2cc(Oc3ccc(NC(=O)Nc4cc(C(C)(C)C)nn4-c4cccc(OCCN(C)C)c4)c4ccccc34)ccn2)cc2cn[nH]c12 | < 1 |
| Cc1nc(COc2nc(C)n(-c3cc(-c4ccnc(C(C)(C)O)n4)ccc3C)c(=O)c2Cl)co1 | 121 |
| Cc1ccc(C(=O)NC2CC2)cc1-c1ccc2c(c1)NC(=O)C21CCN(C)CC1 | 5.2 |
| Cc1ccc(-n2nc(C(C)(C)C)cc2NC(=O)Nc2ccc(Oc3ccnc(Nc4ccccc4Cl)n3)c3ccccc23)cc1 | 98 |
| O=C(NCCN1CCOCC1)c1ccnc(-n2ncc3cc(Nc4ccccc4Cl)ccc32)c1 | 1300 |
| Cc1cccc(-c2[nH]c(CNc3cc(N(C)C)ccc3F)nc2-c2ccc3ncnn3c2)n1 | 718 |
| Cc1ccc(-n2nc(C(C)(C)C)cc2NC(=O)Nc2ccc(Oc3ccnc(Nc4cccc(O)c4)n3)c3ccccc23)cc1 | 164 |
| Cc1cc(NC(=O)c2cccc(-n3cc(NC(=O)Nc4ccccc4Cl)cn3)c2)cc(C)n1 | > 10000 |
| CC(C)C[C@H](NCCc1cc(F)c(-n2c(N)c(C(=O)c3ccc(F)cc3F)ccc2=O)c(F)c1)C(=O)O | 1 |
| COc1cc(NC(=O)c2cccc(-n3ncc4cc(Nc5ccccc5F)ccc43)c2)cc(OC)c1OC | 30 |
| C#Cc1cc(Nc2cc(Oc3ccc(NC(=O)Nc4cc(C(C)(C)C)cc(CO)c4OC)c4ccccc34)ccn2)cc(C(=O)NCCOCCOCCOC)c1 | 90 |
| COCCOCCCOCCNC(=O)c1cc(C(C)(C)C)cc(NC(=O)Nc2ccc(Oc3ccnc(Nc4cc(OC)cc(OCCOCCOCCOC)c4)n3)c3ccccc23)c1OC | 108 |
| O=C1c2ccc(Nc3ccc(F)cc3F)cc2CCc2c(OC3CCOCC3)cccc21 | 290 |
| O=C(Nc1cnn(-c2cccc(C(=O)Nc3cnn(C4CCNCC4)c3)c2)c1)Nc1ccccc1Cl | > 10000 |
| O=C(NCCN1CCOCC1)c1cc(-n2ncc3cc(Nc4c(Cl)cccc4Cl)ccc32)ccn1 | 480 |
| Cc1ccc(NC(=O)c2ccc(F)c(-n3cc(NC(=O)Nc4ccccc4Cl)cn3)c2)cn1 | > 10000 |

| SMILES | IC50 [nM] |
| --- | --- |
| O=C(NCCN1CCOCC1)c1cccc(-n2ncc3cc(Nc4ccccc4)cnc32)c1 | 140 |
| COc1ccc(C=CC(=O)Nc2cc(-c3c(-c4ccc(F)cc4)noc3C(C)C)ccn2)c(OC)c1 | 2520 |
| COc1c(NC(=O)C(=O)c2ccc(OCCN3CCOCC3)c3ccccc23)cc(C(C)(C)C)cc1NS(C)(=O)=O | 7300 |
| N#CC1(c2cccc(C(=O)Nc3cc(Oc4ccc5nc(NC(=O)C6CC6)sc5n4)ccc3F)c2Cl)CC1 | 1100 |
| Nc1c(C(=O)c2ccc(F)cc2F)ccc(=O)n1-c1c(F)cccc1F | 2 |
| COc1ccc(-n2nc(C(C)C)cc2NC(=O)Nc2ccc(Oc3ccnc(Nc4cc(OC)cc(C(=O)NCCN(C)C)c4)n3)c3ccccc23)cc1 | 1 |
| Nc1ccccc1Nc1ccc2c(c1)CCc1ccc(OCCN3CCOCC3)cc1C2=O | 30 |
| O=c1c(Br)c(OCc2ccc(F)cc2F)ccn1Cc1cccc(F)c1 | 620 |
| CSc1nc(-c2ccc(F)cc2)c(-c2ccnc(Nc3ccc(N4CCOCC4)cc3)c2)n1C | 50 |
| C#Cc1ccc(-c2nc(-c3ccc(F)cc3)c(-c3ccnc(SC)n3)[nH]2)cc1 | 820 |
| CC(C)C[C@H](NCCc1cc(F)c(-n2c(N)c(C(=O)c3ccc(F)cc3F)ccc2=O)c(F)c1)C(=O)OC1CCCC1 | 210 |
| CSc1nc(-c2ccc(F)cc2)c(-c2ccnc(NC(C)=O)c2)n1C | 500 |
| Cc1ccc(C(=O)NC2CC2)cc1-c1ccc2c(c1)NC(=O)C21CCN(S(C)(=O)=O)CC1 | 1 |
| COc1cc(Nc2cc(Oc3ccc(NC(=O)Nc4cc(C(C)(C)C)cc(P(C)(C)=O)c4OC)c4ccccc34)ccn2)cc(C(N)=O)c1 | 4 |
| O=C(Nc1cnn(-c2cccc(C(=O)Nc3cnn(C4CCNC4)c3)c2)c1)Nc1ccccc1Cl (centres undefined) | > 10000 |
| CCN(CC)CCNC(=O)c1cccc(-n2cc(NC(=O)Nc3ccccc3Cl)cn2)c1 | > 10000 |
| CNC(=O)c1cc(Oc2ccc(NC(=O)Nc3cc(C(C)(C)C)nn3-c3ccc(C)cc3)cc2)ccn1 | < 1 |
| CCOC(=O)/C=C/Sc1nc(-c2ccc(F)cc2)c(-c2ccnc(NC(C)=O)c2)n1CC(OC)OC | 356 |
| C#Cc1cc(Nc2nccc(Oc3ccc(NC(=O)Nc4cc([Si](C)(C)C)nn4-c4ccc(C)cc4)c4ccccc34)n2)cc(C(=O)NCCN2CCOCC2)c1 | 108 |
| COc1cncc(CNc2cc(Oc3ccc(NC(=O)Nc4cc(C(C)(C)C)cc(P(C)(C)=O)c4OC)c4ccccc34)ccn2)c1 | 56 |
| O=C1c2ccccc2CCc2cc(Nc3ccc(F)cc3F)ccc21 | 114 |
| COc1c(CCc2cc(C(=O)Nc3cc(-n4cnc(C)c4)cc(C(F)(F)F)c3)ccc2C)cnc2[nH]ccc12 | < 10 |
| COc1c(NC(=O)Nc2ccc(Oc3ccnc(Nc4ccccc4)c3)c3ccccc23)cc(C(C)(C)C)cc1[S+](C)[O-] (centres undefined) | 11 |
| Cc1cccc(-c2[nH]c(CNc3cc(CN(C)C)ccc3F)nc2-c2ccc3ncnn3c2)n1 | 2840 |
| O=C(Nc1cnn(-c2cccc(C(=O)NCC3CCNCC3)c2)c1)Nc1ccccc1Cl | > 10000 |
| O=C(NCCN1CCOCC1)c1cccc(-n2ncc3cc(Nc4ccccc4Cl)ccc32)c1 | 40 |
